Here are results for ten compounds from ChEMBL document CHEMBL1201862, “PubChem BioAssay data set” (2004).

Molecules are shown by their SMILES.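 Compound exposure: 48 hours, 5 concentrations, 96-well plates. Abbreviation: GI50, concentration required for 50% inhibition of growth.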 The source made the active and inactive calls. Cut-off read from the data, not from the text of the source: active = GI50 up to about 1.1 µM and inactive = higher.

Among the test systems are A498; A549; ACHN; BT-549; CCRF-CEM; DU-145; EKVX; HOP-62; KM12; LOX IMVI; MDA-MB-231; MDA-MB-435; NCI-H460; PC-3; RPMI-8226; SF-268; SF-539; SK-MEL-5; SK-OV-3; SNB-19.
Assay in all cases: inhibition of tumour cell growth, NCI panel, 48 h

As to `O=C(O)/C(=C\c1ccccc1)Cc1ccccc1`, the GI50 with A498, in the test with A549, in the test on ACHN, in the test on BT-549, with CCRF-CEM and with DU-145 was > 100 µM (inactive) each time. The GI50 with EKVX, in the test on HOP-62, in the test with KM12, with LOX IMVI, in the test on MDA-MB-231 and in the test on MDA-MB-435 was > 100 µM (inactive) in each case. The GI50 with NCI-H460 was > 100 µM (inactive); in the test on PC-3, > 100 µM (inactive); in the test on RPMI-8226, > 100 µM (inactive); in the test on SF-268 it was > 100 µM (inactive); in the test on SF-539, 83 µM (inactive); in the test on SK-MEL-5, > 100 µM (inactive). Further, the GI50 in the test on SK-OV-3 and in the test with SNB-19 was > 100 µM (inactive) each time.

As to `CC(C)c1ccc(/C(C(=O)O)=C(\O)C(=O)O)cc1`, the GI50 in the test on A498, with A549, in the test on ACHN, with BT-549, with CCRF-CEM and in the test with DU-145 was > 100 µM (inactive) throughout. The GI50 in the test with EKVX, in the test on HOP-62, in the test on KM12, with LOX IMVI, in the test on MDA-MB-231 and with MDA-MB-435 was > 100 µM (inactive) throughout. Moreover, the GI50 in the test with NCI-H460, in the test on PC-3, in the test with RPMI-8226, in the test on SF-268, in the test on SF-539 and with SK-MEL-5 was > 100 µM (inactive) each time. Moreover, the GI50 in the test on SK-OV-3 and with SNB-19 was > 100 µM (inactive) in each case.

On to `c1ccc(-c2cn3c(nc4ccccc43)c(-c3ccccc3)n2)cc1`, for which the GI50 in the test with A498 is 44.6 µM (inactive); in the test on A549, > 68.7 µM (inactive); in the test with ACHN, > 100 µM (inactive); in the test with BT-549, 29.4 µM (inactive); in the test with CCRF-CEM, > 100 µM (inactive); in the test with DU-145, > 100 µM (inactive). The GI50 in the test with EKVX is > 100 µM (inactive); in the test on HOP-62, 7.13 µM (inactive); in the test on KM12, > 100 µM (inactive); in the test with LOX IMVI, 81.8 µM (inactive); with MDA-MB-231, > 100 µM (inactive); in the test on MDA-MB-435 it was > 87.7 µM (inactive). Further, the GI50 was 58.1 µM (inactive) in the test on NCI-H460; > 57.7 µM (inactive) with PC-3; > 100 µM (inactive) with RPMI-8226; > 50.6 µM (inactive) in the test on SF-268; 27.9 µM (inactive) in the test with SF-539; 84.3 µM (inactive) with SK-MEL-5. Besides, the figures for the GI50 in the test on SK-OV-3 and in the test on SNB-19 were 10.2 µM (inactive) and 16.8 µM (inactive), respectively.

Regarding `O=C(N/N=C/c1ccc2c(c1)CCC2)c1ccccc1O`, the GI50 is 15.7 µM (inactive) with A498; 21.2 µM (inactive) with A549; 18.6 µM (inactive) in the test on ACHN; 19.3 µM (inactive) in the test on BT-549; 8.71 µM (inactive) in the test with CCRF-CEM; 48 µM (inactive) with DU-145. Moreover, the GI50 in the test on EKVX is 27.1 µM (inactive); with HOP-62, 17 µM (inactive); in the test with KM12, 20.9 µM (inactive); with LOX IMVI, 27.8 µM (inactive); in the test with MDA-MB-231 it was 19.5 µM (inactive); in the test on MDA-MB-435 it was 21.5 µM (inactive). Besides, the GI50 in the test on NCI-H460 is 22.1 µM (inactive); with PC-3, 19.7 µM (inactive); in the test with RPMI-8226, 32.5 µM (inactive); in the test on SF-268, 23.8 µM (inactive); in the test on SF-539, 31.5 µM (inactive); in the test with SK-MEL-5 it was 33.9 µM (inactive). Also, the GI50 is 12.1 µM (inactive) in the test with SK-OV-3 and 19.8 µM (inactive) in the test with SNB-19.

In the case of `O=[N+]([O-])c1cc(-c2nc(-c3ccccc3)c(-c3ccccc3)[nH]2)c(O)c([N+](=O)[O-])c1`, the GI50 with A498 is 20.8 µM (inactive); in the test on A549, 34.4 µM (inactive); in the test with ACHN, 21.6 µM (inactive); with BT-549, 20 µM (inactive); in the test on CCRF-CEM, 25.9 µM (inactive); in the test with DU-145 it was 21.9 µM (inactive). Besides, the GI50 in the test with EKVX is 23.4 µM (inactive); in the test on HOP-62 it was 20.4 µM (inactive); in the test on KM12 it was 24.9 µM (inactive); with LOX IMVI, 23.6 µM (inactive); in the test on MDA-MB-231, 22.4 µM (inactive); in the test with MDA-MB-435 it was 32.6 µM (inactive). Also, the GI50 in the test on NCI-H460 was 21.5 µM (inactive); in the test with PC-3, 20.3 µM (inactive); in the test on RPMI-8226, 27 µM (inactive); in the test on SF-268, 30.1 µM (inactive); in the test on SF-539, 19.5 µM (inactive); in the test with SK-MEL-5, 17.7 µM (inactive). The GI50 in the test on SK-OV-3 was 20.2 µM (inactive); with SNB-19 it was 36.9 µM (inactive).

Turning to `C=CCN(CCNS(=O)(=O)c1ccc(C)cc1)S(=O)(=O)c1ccc(C)cc1`, the GI50 was 6.07 µM (inactive) in the test with A498; 13.9 µM (inactive) with A549; 13.6 µM (inactive) in the test with ACHN; 22.4 µM (inactive) in the test on BT-549; > 55 µM (inactive) in the test with CCRF-CEM; 54.6 µM (inactive) with DU-145. Also, the GI50 with EKVX was 31.9 µM (inactive); in the test with HOP-62, 27.9 µM (inactive); with KM12, 57.8 µM (inactive); in the test with LOX IMVI, 17.3 µM (inactive); in the test on MDA-MB-231, > 100 µM (inactive); with MDA-MB-435, > 57.9 µM (inactive). Also, the GI50 in the test with NCI-H460 is 9.46 µM (inactive); in the test with PC-3, > 48 µM (inactive); in the test on RPMI-8226, 24.6 µM (inactive); in the test with SF-268, 10.4 µM (inactive); in the test on SF-539, 75.9 µM (inactive); with SK-MEL-5 it was 6.17 µM (inactive). In addition, the GI50 was 12.9 µM (inactive) with SK-OV-3 and > 76.6 µM (inactive) in the test on SNB-19.

For `Cc1ccc(C(=O)/C=C(O)/C(O)=C/C(=O)c2ccc(C)cc2C)c(C)c1`, the GI50 in the test on A498 is 2.04 µM (inactive); in the test on A549, 2.48 µM (inactive); with ACHN, 1.84 µM (inactive); with BT-549, 1.64 µM (inactive); in the test on CCRF-CEM, 0.175 µM (active); in the test with DU-145, 2.36 µM (inactive). The GI50 is 2.34 µM (inactive) with EKVX; 1.58 µM (inactive) in the test on HOP-62; 1.88 µM (inactive) in the test on KM12; 2.16 µM (inactive) with LOX IMVI; 2.34 µM (inactive) in the test with MDA-MB-231; 2.01 µM (inactive) in the test with MDA-MB-435. The GI50 in the test with NCI-H460 was 1.71 µM (inactive); with PC-3, 2.31 µM (inactive); with RPMI-8226 it was 2.01 µM (inactive); in the test on SF-268, 1.91 µM (inactive); in the test on SF-539, 1.85 µM (inactive); in the test on SK-MEL-5 it was 1.75 µM (inactive). Also, the GI50 is 1.94 µM (inactive) in the test on SK-OV-3 and 2.49 µM (inactive) in the test on SNB-19.

For the compound `COc1c2occc2c(OC)c2c(=O)c(S(=O)(=O)NC(=O)Nc3ccc(Cl)cc3)coc12`, the GI50 in the test with A498, with A549, with ACHN, in the test on BT-549, with CCRF-CEM and in the test with DU-145 was > 10 µM (inactive) in each case. Moreover, the GI50 in the test with EKVX, in the test with HOP-62, in the test with KM12, in the test on LOX IMVI, in the test with MDA-MB-231 and with MDA-MB-435 was > 10 µM (inactive) in each case. The GI50 in the test with NCI-H460, in the test on PC-3, in the test with RPMI-8226, in the test on SF-268, in the test on SF-539 and in the test on SK-MEL-5 was > 10 µM (inactive) throughout. The GI50 in the test with SK-OV-3 and in the test with SNB-19 was > 10 µM (inactive) in each case.

As to `CC(=O)N1c2ccccc2C(C)C1c1[nH]c2ccccc2c1C` (stereo not given), the GI50 in the test with A498 was 22.7 µM (inactive); in the test on A549, 23.4 µM (inactive); in the test with ACHN it was 32.3 µM (inactive); in the test on BT-549, 22.5 µM (inactive); in the test on CCRF-CEM it was 25.6 µM (inactive); with DU-145, 28.3 µM (inactive). Besides, the GI50 with EKVX was 18.1 µM (inactive); in the test with HOP-62, 19.2 µM (inactive); in the test with KM12 it was 16.1 µM (inactive); with LOX IMVI it was 26.1 µM (inactive); in the test with MDA-MB-231 it was 18.6 µM (inactive); with MDA-MB-435, 18.2 µM (inactive). Also, the GI50 with NCI-H460 was 19.3 µM (inactive); in the test with PC-3, 31.3 µM (inactive); in the test with RPMI-8226, 13 µM (inactive); in the test on SF-268, 23.4 µM (inactive); with SF-539 it was 11 µM (inactive); in the test on SK-MEL-5, 13.7 µM (inactive). The values for the GI50 in the test with SK-OV-3 and in the test on SNB-19 were 19.7 µM (inactive) and 31.6 µM (inactive), respectively.

In the case of `N=C(N)NCCCC(=O)O`, the GI50 in the test with A498, with A549, with ACHN, in the test on BT-549, in the test with CCRF-CEM and with DU-145 was > 100 µM (inactive) throughout. The GI50 with EKVX, with HOP-62, in the test on KM12, with LOX IMVI, with MDA-MB-231 and in the test with MDA-MB-435 was > 100 µM (inactive) throughout. The GI50 in the test with NCI-H460, in the test with PC-3, with RPMI-8226, in the test with SF-268, with SF-539 and in the test with SK-MEL-5 was > 100 µM (inactive) throughout. The GI50 with SK-OV-3 and in the test on SNB-19 was > 100 µM (inactive) throughout.
